Source: patent US11938198B2, “Treatment of heart disease by disruption of the anchoring of PP2A” (University of Miami, priority 2019, dated 2024)

Tests used:
[1] = test system: mAKAP-associated phosphatase (PP2A); experiment: Phosphatase activity of mAKAP complexes immunoprecipitated from adult rat heart extracts ([32P]histone); format: biochemical; conditions: 50 μM CPT-cAMP, 5 min pre-incubation
Experimental: (§1) For immunoprecipitation of endogenous, native mAKAP complexes, adult rat hearts (Pel-Freeze) were homogenized in 10 ml HSE buffer. After centrifugation at 15,000×g for 25 minutes, clarified extracts were immunoprecipitated as above.
(§2) Phosphatase Assay—Phosphatase activity was measured according to the method of Ahn et al. using ^32P-labeled histone as substrate (Ahn et al. 2007). Histone was radiolabeled in reactions containing 250 mM MOPS, pH 7.4, 2.5 mM MgAc, 100 mM β-mercaptoethanol, purified PKA catalytic subunit, 1 μM ATP, 20 μM histone, and 1 mCi [γ-^32P]ATP (6000 Ci/mmol). The reaction was terminated by the addition of 50% TCA, and [^32P]histone was purified from free radionucleotide by centrifugation. The [^32P]histone pellet was washed with 1 ml of ether/ethanol/HCL (4:1:0.1) once and 1 ml of ether/ethanol (4:1) three times. The substrate was then suspended in 200 μl PP2A assay buffer (25 mM Tris, pH 7.4, 1 mM DTT, and 10 mM MgCl2) before precipitation with 50% TCA. After repeated washing, the [^32P]histone was suspended in 200 μl PP2A buffer.
(§3) To measure phosphatase activity, immunoprecipitated protein complexes were washed twice in HSE buffer and once in PP2A reaction buffer. […] TCA supernatants containing released ^32PO4 were measured by scintillation counting.

PDE4D3 Ser-54 = PDE4D3 Ser-54 phosphorylation in mAKAP immunoprecipitates from transfected HEK293 cells (phospho-specific immunoblot); format: cell-based; conditions: HEK293 cells over-expressing mAKAP and PDE4D3; OA or 500 μM CsA for 30 min
[2] = target: T1, mAKAP-associated phosphatase (PP2A) (Rattus norvegicus, UniProt P63331); experiment: Phosphatase activity of mAKAP complexes immunoprecipitated from adult rat heart extracts ([32P]histone); format: biochemical; conditions: 10 nM
T1 construct: For immunoprecipitation of endogenous, native mAKAP complexes; tissue Pel-Freeze; host or cells: adult rat heart
T1 sequence (P63331 whole entry): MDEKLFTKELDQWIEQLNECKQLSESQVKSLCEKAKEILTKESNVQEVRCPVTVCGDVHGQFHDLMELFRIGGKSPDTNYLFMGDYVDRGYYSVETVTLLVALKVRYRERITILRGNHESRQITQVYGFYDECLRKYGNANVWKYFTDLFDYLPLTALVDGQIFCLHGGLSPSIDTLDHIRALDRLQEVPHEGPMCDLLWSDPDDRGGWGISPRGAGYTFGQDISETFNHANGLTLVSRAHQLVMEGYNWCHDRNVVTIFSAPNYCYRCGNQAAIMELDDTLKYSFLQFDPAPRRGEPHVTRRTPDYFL
Experimental: as §1, §2, §3

[3] = test system: mAKAP-associated phosphodiesterase; experiment: PDE activity of native mAKAP complexes immunoprecipitated from adult rat heart extracts; format: biochemical
Experimental: as §1
PDE assay—PDE activity associated with immunoprecipitated protein complexes was assayed according to the method by Beavo et al. (Beavo, Bechtel, and Krebs 1974). Samples were assayed in 45 μl PDE buffer A (100 mM MOPS, pH 7.5, 4 mM EGTA, 1.0 mg/ml bovine serum albumin) and 50 μl PDE buffer B [100 mM MOPS, pH 7.5, 75 mM MgAc, 1 μM cAMP and 100,000 cpm [^3H]cAMP (Dupont, NEN)]. Inhibitors were included as indicated.

mAKAP-bound PDE4D3 = experiment: PDE activity associated with mAKAP immunoprecipitates from transfected HEK293 cells ([3H]cAMP); format: cell-based; conditions: 300 μM OA 30 min then 5 μM Fsk 10 min
Experimental: Immunoprecipitation—HEK293 cells were used in this project as a heterologous system lacking mAKAP in which the various wildtype and mutant proteins could be easily expressed. Cells cultured on 60 mm plates were transfected at 50%-70% confluency by the calcium phosphate method, using 6 μg of each DNA construct per plate. Cells were harvested 24 hours after transfection in 0.5 ml HSE buffer (HEPES, pH 7.4, 150 mM NaCl, 5 mM EDTA, 1% Triton X-100 and protease inhibitors). Supernatants were incubated with 3 μg antibody and 15 μl prewashed protein A- or G-agarose beads. Following overnight incubation at 4° C., the immunoprecipitates were washed three times with the same buffer. Bound proteins were analyzed by immunoblotting. […]
As phosphorylation of PDE4D3 Ser-54 increases phosphodiesterase activity 2 fold (Sette and Conti 1996), whether OA treatment would also increase the activity of mAKAP-bound PDE4D3 was tested. mAKAP complexes were immunoprecipitated from transfected HEK293 cells and assayed for associated phosphodiesterase activity (FIG. 8B). mAKAP-associated phosphodiesterase activity in untreated cells was detected only when mAKAP was co-expressed with PDE4D3 (FIG. 8B, bar 1, and data not shown), consistent with a previous observation that PDE4D3 accounts for all of the phosphodiesterase activity associated with mAKAP in cardiac myocytes (Dodge et al. 2001).

SRF Ser^103 [4] = experiment: SRF Ser103 phosphorylation in neonatal rat ventricular myocytes (NRVM); format: cell-based; conditions: 1 hour, 1 μM OA or 1 μg/ml CsA
Experimental: (§4) Neonatal Rat Ventricular Myocyte Culture: 1-3 day old Sprague-Dawley rats were decapitated, and the excised hearts placed in 1× ADS Buffer (116 mM NaCl, 20 mM HEPES, 1 mM NaH2PO4, 5.5 mM glucose, 5.4 mM KCl, 0.8 mM MgSO4, pH 7.35). The atria were carefully removed and the blood washed away. The ventricles were minced and incubated with 15 mL 1× ADS Buffer containing 3.3 mg type II collagenase (Worthington, 230 U/mg) and 9 mg Pancreatin (Sigma) at 37° C. with gentle shaking. After 15 minutes, the dissociated cardiac myocytes were separated by centrifugation at 50 g for 1 minute, resuspended in 4 mL horse serum and incubated at 37° C. with occasional agitation. The steps for enzymatic digestion and isolation of myocytes were repeated 10-12 times to maximize yield. The myocytes were pooled and spun down again at 50 g for 2 minutes and resuspended in Maintenance Medium (DMEM:M199, 4:1) supplemented with 10% horse serum and 5% fetal bovine serum. To remove any contaminating fibroblasts, the cells were pre-plated for 1 hour before plating on gelatin-coated tissue culture plastic ware. This procedure yields >90% pure cardiac myocytes. After 1 day culture, the media was changed to maintenance medium containing 0.1 mM bromodeoxyuridine to suppress fibroblast growth. […]

mAKAPβ-PP2A association = experiment: Co-immunoprecipitation of endogenous mAKAPβ-PP2A in myocytes; format: cell-based, rat; conditions: NRVM infected with adenovirus
Experimental: as §4

SRF Ser^103 [5] = experiment: SRF Ser103 phosphorylation in adult rat ventricular myocytes (ARVM); format: cell-based; conditions: 10 μM Iso 1 day
Experimental: Adult rat ventricular myocyte isolation and culture: 2-3 month old rats were anesthetized using Ketamine (80-100 mg/kg) and Xylazine (5-10 mg/kg) IP following 1000 U heparinization for cardiac excision. The heart was transferred immediately into chilled perfusion buffer (NaCl 120 mM, KCl 5.4 mM, Na2HPO4·7H2O 1.2 mM, NaHCO320.0 mM, MgCl2·6H2O 1.6 mM, Taurine 5 mM, Glucose 5.6 mM, 2,3-Butanedione monoxime 10 mM) pre-equilibrated with 95% O2 and 5% CO2. After removal of extraneous tissue, the heart was attached via the aorta to a Harvard Langendorff apparatus cannula. Ca^2+-free perfusion was used to flush out remaining blood with a constant rate of 8-10 mL/min at 37° C. The heart was then digested through circulatory perfusion with 50 mL perfusion buffer containing 125 mg type II collagenase (Worthington, 245 U/mg), 0.1 mg protease (Sigma type XIV) and 0.1% BSA. After perfusion, the atria were removed and the ventricular myocytes dissociated by slicing and repetitive pipetting. The debris was filtered by a 200 μm nylon mesh, and the myocytes collected by one minute centrifugation at 50 g. […]

[6] = test system: adult rat ventricular myocytes (ARVM); experiment: ARVM morphologic hypertrophy (cell width and length by immunocytochemistry); format: cell-based; conditions: adenoviral expression; for Iso-induced ARVM hypertrophy: 10 μM Iso 24 hours
Experimental: Adult rat ventricular myocyte isolation and culture: 2-3 month old rats were anesthetized using Ketamine (80-100 mg/kg) and Xylazine (5-10 mg/kg) IP following 1000 U heparinization for cardiac excision. The heart was transferred immediately into chilled perfusion buffer (NaCl 120 mM, KCl 5.4 mM, Na2HPO4·7H2O 1.2 mM, NaHCO320.0 mM, MgCl2·6H2O 1.6 mM, Taurine 5 mM, Glucose 5.6 mM, 2,3-Butanedione monoxime 10 mM) pre-equilibrated with 95% O2 and 5% CO2. After removal of extraneous tissue, the heart was attached via the aorta to a Harvard Langendorff apparatus cannula. Ca^2+-free perfusion was used to flush out remaining blood with a constant rate of 8-10 mL/min at 37° C. The heart was then digested through circulatory perfusion with 50 mL perfusion buffer containing 125 mg type II collagenase (Worthington, 245 U/mg), 0.1 mg protease (Sigma type XIV) and 0.1% BSA. After perfusion, the atria were removed and the ventricular myocytes dissociated by slicing and repetitive pipetting. The debris was filtered by a 200 μm nylon mesh, and the myocytes collected by one minute centrifugation at 50 g. Ca^2+ concentration in the buffer was gradually recovered to 1.8 mM and the myocytes were resuspended in ACCT medium (M199 Medium (Invitrogen 11150-059), Creatine 5 mM, L-carnitine 2 mM, Taurine 5 mM, HEPES 25 mM, 2,3-Butanedione monoxime 10 mM, BSA 0.2% and 1×Insulin-Transferrin-Selenium Supplement) and plated on 10 μg/ml laminin pre-coated dishes. Cells were washed with ACCT medium 1.5 hours after plating and subjected to adenoviral infection or siRNA transfection, in which 100-200 Multiplicity of Infection (MOI) of adenovirus and 100 nmol/L siRNA mixed with Dharmafect1 (Dharmacon) were used, respectively. Adrenergic agonists were added the next day, with biochemical assay and morphological measurement performed after 24 hours of stimulation.
Immunocytochemistry: Myocytes on coverslips were fixed in 3.7% formaldehyde in PBS for 1 hour, permeabilized with 0.3% Triton X-100, and blocked in PBS containing 0.2% BSA and 1% horse serum. The slides were then sequentially incubated for 1 hour with primary and Alexa fluorescent dye-conjugated specific-secondary antibodies (Invitrogen, 1:1000) diluted in blocking buffer. The slips were washed three times with blocking buffer. 1 μg/mL Hoechst 33258 was included in the last wash stop to label nuclei. Slides were sealed in SlowFade Gold antifade buffer (Invitrogen, S36938) for fluorescent microscopy. Wide-field images were acquired using a Leica DM4000 Microscope.

## Nc1ncnc2c1nc(Sc1ccc(Cl)cc1)n2[C@@H]1O[C@@H]2COP(=O)([O-])O[C@H]2[C@H]1O.[Na+] [CPT-cAMP, 8-(4-chlorophenylthio)adenosine 3′,5′-cyclic monophosphate]
[1]
  increase of mAKAP-associated phosphatase activity: 2.5 fold

## C=C1[C@@H](O)[C@@H]2O[C@]3(CC[C@H](/C=C/[C@@H](C)[C@@H]4CC(C)=C[C@@]5(O[C@H](C[C@@](C)(O)C(=O)O)CC[C@H]5O)O4)O3)CC[C@H]2O[C@@H]1[C@@H](O)C[C@H](C)[C@H]1O[C@@]2(CCCCO2)CC[C@H]1C [OA, okadaic acid]
PDE4D3 Ser-54
  baseline phosphorylation of PDE4D3 Ser-54: increase in the baseline phosphorylation of PDE4D3 Ser-54
[2]
  inhibition of mAKAP-associated phosphatase activity: all immunoprecipitated phosphatase activity was inhibited
[3]; 10 nM OA with 50 nM PKI
  increase in mAKAP-associated phosphodiesterase activity when PKA was also inhibited: 60%
[3]; 10 nM OA, native complexes from adult rat heart
  increase in mAKAP-associated phosphodiesterase activity: 30%
mAKAP-bound PDE4D3
  mAKAP-bound PDE4D3 activity, Fsk and OA treatment together: synergistically increased PDE4D3 activity
SRF Ser^103 [4]
  baseline phosphorylation of SRF Ser^103: promoted baseline phosphorylation of SRF Ser^103

B1: PBD: myc-tagged mAKAP aa 2134-2314 fragment, PP2A anchoring disruptor, expressed by adenovirus (protein)
chain: MEQKLISEEDLSPGMLTMSVTLSPLRSQTPLPPDAVDSGLDDKEDMDCFFEACVEDEPVNEEAGLPGALPNESAIEDGAEQKSEQKTASSPVLSDKTDLVPLSGLSPQKGADDAKEGDDVSHTSQGCAESTEPTTPSGKANAEGRSRMQGVSATPEENAASAKPKIQAFSLNAKQPKGKVAMRYPSPQTLTCKEKLVNFHEDRHSNMHR
modifications: myc-tagged rat mAKAP PBD
notes: myc-tagged mAKAP aa 2134-2314 fragment, PP2A anchoring disruptor, expressed by adenovirus
mAKAPβ-PP2A association
  endogenous mAKAPβ-PP2A association: competed endogenous mAKAPβ-PP2A association
SRF Ser^103 [5]
  Iso-induced SRF Ser^103 phosphorylation: potentiated the induction of SRF Ser^103 phosphorylation
[6]
  Iso-induced ARVM hypertrophy: attenuated the eccentric hypertrophy
[6]; listed as PDB
  Iso-induced ARVM hypertrophy: promoted ARVM concentric hypertrophy
[6]; 20 μM PE 24 hours
  PE-induced ARVM hypertrophy: did not enhance nor diminish
[6]; no drug
  basal ARVM morphology: no effect
